Measured values published in patent publication US20220143003A1, “COMPOSITIONS AND METHODS TO TREAT NON-ALCOHOLIC FATTY LIVER DISEASES (NAFLD)” (Coherus Biosciences, Inc., priority 2018, published 2022).
“Also recorded” adds a separate entry of the source.

Legend:
Format in all cases: in vivo, male C57BL/6JRj mice
[1] = system: DIO-NASH mice; assay: Oral glucose tolerance test (OGTT), week 7; settings: 6 h fasted, oral glucose 2 g/kg, group mean
Experimental: Animals were fasted 6 hours prior to oral glucose administration (2 g/kg). At the various time points after glucose administration, blood samples were collected into heparinized glass capillary tubes and immediately suspended in glucose/lactate system solution buffer (EKF-diagnostics, Germany). Blood glucose (BG) was measured using a BIOSEN c-Line glucose meter (EKF-diagnostics, Germany) according to the manufacturer's instructions. After the last blood sample, the animals were returned to the normal feeding schedule. The order of the animals were randomized before the procedure and mice were dosed with compounds just after the −60 minutes blood sample.
Oral glucose tolerance test (OGTT) in week 7. Temporal course of blood glucose levels during 6 h fasted OGTT. Oral glucose bolus (2 g/kg) at t=0 min.
Area under the curve calculated from the temporal course from 0-180 min OGTT. Values expressed as mean of n=12-14+SEM.

[2] = system: DIO-NASH mice; assay: 4 h fasted plasma insulin (MSD platform); settings: for 4 h fasted plasma insulin / Delta 4 h fasted plasma insulin week 12 vs baseline: group mean
Experimental: (§1) For plasma biochemistry, tail blood was drawn directly through the capillary of a Microvette/Vacuette of the right dimension and anticoagulant and mixed by inversion 5 times. Blood was placed at 4° C. until centrifugation at 3000×g for 10 minutes at 4° C. The plasma supernatants were transferred to new tubes and immediately frozen on dry ice and stored at −80° C. until analysis.
(§2) Mouse insulin was measured in single determinations using the MSD platform (Meso Scale Diagnostics).
4 h fasted plasma insulin (pg/mL) at baseline. Values expressed as mean of n=12-14+SEM.
4 h fasted plasma insulin (pg/mL) at week 12. Values expressed as mean of n=12-14+SEM.
Delta 4 h fasted plasma insulin (pg/mL) week 12 vs baseline. Values expressed as mean of n=12-14+SEM.

[3] = system: DIO-NASH mice; assay: Liver Galectin-3 IHC quantified by morphometry; settings: at termination, mean of n=12-14; for Total terminal liver Galectin-3 (Average): % fractional area multiplied with liver weight; for Relative terminal liver Galectin-3 (Average): morphometry
Experimental: Protein markers of fibrosis (Col1a1), fibrogenesis (α-SMA) and inflammation (Gal-3) were assessed by immunohistochemistry. α-SMA and collagen type I increase in regulation of quiescent hepatic stellate cell activation into myofibroblast-like cells where activated hepatic stellate cells are the main collagen producing cells in the liver (Carpino et al 2005, Hou and Syn 2018) whereas Gal-3 is involved in mediating inflammatory response and considered as a macrophage activation marker (Sciacchitano et al, 2018). For morphometric quantification of liver Col1a1 (using antibody from Southern Biotech, Cat. #1310-01), alpha-smooth muscle actin (α-SMA; using antibody from Abcam, Cat. #Ab124964) and Galectin-3 (using antibody from Biolegend, Cat. #125402), IHC staining was performed using standard procedures. Briefly, after antigen retrieval and blocking of endogenous peroxidase activity, slides were incubated with primary antibody. For all IHC stains, the primary antibody was detected using a polymeric HRP-linker antibody conjugate and visualized using DAB as chromogen. Finally, sections were counterstained in hematoxylin and cover-slipped before scanning.
Quantitative assessment of immunoreactivity is evaluated as follows. IHC-positive staining is quantified by image analysis using the Visiomorph software (Visiopharm, Denmark). Visiomorph protocols are designed to analyze the virtual slides in two steps: 1. Crude detection of tissue at low magnification (1× objective). The liver capsule is excluded. 2. Detection of IHC-positive staining (e.g. green; collagen 1 IHC), tissue (e.g. red) and fat (e.g. pink) at high magnification (10×objective). The quantitative estimate of IHC-positive staining is calculated as an area fraction (AF) according to the following formula:
Terminal liver Galectin-3 was quantified by morphometry. Relative terminal liver Galectin-3 (% fractional area) is expressed as mean of n=12-14+SEM.
Total terminal Galectin-3 values are in milligrams (% fractional area multiplied with liver weight) and expressed as mean of n=12-14+SEM.

[4] = system: DIO-NASH mice; assay: 4 h fasted blood glucose; settings: group mean
[5] = system: DIO-NASH mice; assay: NAFLD Activity Score (steatosis, lobular inflammation, ballooning), pre- to post-biopsy histopathological scoring; settings: for NAFLD activity score (NAS), effect in words: 12 weeks of treatment, compared to NASH vehicle+vehicle, summary of data; for Delta change in NAFLD activity score from pre- to post biopsy: group mean
Experimental: Three weeks prior to study start, a pre-biopsy was performed to confirm NASH and for study inclusion of NASH-affected mice only. Briefly, mice were anesthetized with isoflurane (2-3%) in 100% oxygen. A small abdominal incision was made in the midline and the left lateral lobe of the liver exposed. A cone shaped wedge of liver tissue (approximately 50 mg) was excised from the distal portion of the lobe and fixated in 10% neutral buffered formalin (4% formaldehyde) for histopathological analyses. The cut surface of the liver was instantly electro-coagulated using bipolar coagulation (ERBE VIO 100 electrosurgical unit). The liver was returned to the abdominal cavity, the abdominal wall sutured, and the skin closed with staplers. For post-operative recovery, mice received carprofen (5 mg/ml-0.01 ml/10 g) administered subcutaneously on the day of operation and on post-operation day 1 and 2.
For Hematoxylin & Eosin (HE) staining, slides were incubated in Mayer's Hematoxylin, washed in tap water, stained in Eosin Y solution, […], mounted with Pertex and allowed to dry before scanning.
For scoring of NAFLD Activity Score (NAS) and fibrosis stage, HE and Sirius red stained liver sections, respectively, were scored by a histopathology specialist as outlined in Table 10 using the clinical criteria outlined by Kleiner et al. (2005). Total NAS score represents the sum of scores for steatosis, lobular inflammation, and ballooning degeneration scores, and ranges from 0-8.
For steatosis score, percentage refers to percentage of hepatocytes affected by steatosis as evaluated on low to medium power examination.
For lobular inflammation, inflammation is evaluated by counting the number of inflammatory foci per field using a 200× magnification (min. 5 fields per animal). A focus is defined as a cluster, not a row, of >3 inflammatory cells. Acidophil bodies are not included in this assessment, nor is portal inflammation.
For hepatocellular ballooning degeneration, degenerated hepatocytes with a cleared cytoplasm, enlargement, swelling, rounding and reticulated cytoplasm were identified.
Delta change in NAFLD activity score from pre-to post biopsy. Values expressed as mean of n=12-14+SEM.

[6] = system: DIO-NASH mice; assay: Plasma triglycerides (TG) at termination; settings: group mean
Experimental: as §1, §2
Plasma triglycerides (TG) at termination (mmol/L). Values expressed as mean of n=12-14+SEM.

[7] = CHS-131 High dose (alone or combined)
[8] = at baseline, CHS-131 High dose (alone or combined)
[9] = week 12, CHS-131 High dose (alone or combined)
[10] = DIO-NASH mice, compared to vehicle only, non-significant

Row | SMILES | Area under the curve 0-180 min OGTT (blood glucose) [1, 7] | 4 h fasted plasma insulin [2, 8] [pg/mL] | 4 h fasted plasma insulin [2, 9] [pg/mL] | Delta 4 h fasted plasma insulin week 12 vs baseline [2, 7] [pg/mL] | 4 h fasted blood glucose [4, 8] [mmol/L] | 4 h fasted blood glucose [4, 9] [mmol/L] | Delta 4 h fasted blood glucose week 12 vs baseline [4, 7] [mmol/L] | NAFLD activity score (NAS), effect in words ([5]; DIO-NASH mice) | Delta change in NAFLD activity score from pre- to post biopsy [5, 7] | Plasma triglycerides (TG) at termination [6, 7] [mmol/L] | Total terminal liver Galectin-3 (Average) [3] [milligrams] | Relative terminal liver Galectin-3 (Average) [3] [% fractional area] | other results
1 | O=S(=O)(Nc1cc(Cl)c(Oc2cnc3ccccc3c2)c(Cl)c1)c1ccc(Cl)cc1Cl [CHS-131] | 1.66e+03 | 816 | 402 | -414 | 7.68 | 7.01 | -0.675 | reduced NAS; also recorded: significant improvement | −0.77 | 0.651 |  |  | Area under the curve 0-180 min OGTT (blood glucose) ([1]; CHS-131 Low dose): 1.53e+03; Plasma insulin, effect in words ([2]; DIO-NASH mice, 12 weeks of treatment, summary of data): reduced; Decrease of fasting plasma insulin ([2]; DIO-NASH mice, compared to DIO mice administered vehicle only, significant, dose response manner): 50%; 4 h fasted plasma insulin ([2]; at baseline, CHS-131 Low dose): 703 pg/mL; 4 h fasted plasma insulin ([2]; week 12, CHS-131 Low dose): 485 pg/mL; Delta 4 h fasted plasma insulin week 12 vs baseline ([2]; CHS-131 Low dose): -219 pg/mL; Total terminal liver Galectin-3 (Average) ([3]; CHS-131 High dose + Vehicle): 90.6 milligrams; Relative terminal liver Galectin-3 (Average) ([3]; CHS-131 High dose + Vehicle): 2.79 % fractional area; Total terminal liver Galectin-3 (Average) ([3]; CHS-131 Low dose + Vehicle): 93.8 milligrams; Relative terminal liver Galectin-3 (Average) ([3]; CHS-131 Low dose + Vehicle): 2.95 % fractional area; 4 h fasted blood glucose ([4]; at baseline, CHS-131 Low dose): 8.09 mmol/L; 4 h fasted blood glucose ([4]; week 12, CHS-131 Low dose): 7.31 mmol/L; Delta 4 h fasted blood glucose week 12 vs baseline ([4]; CHS-131 Low dose): -0.787 mmol/L; Improvement of average NAFLD activity score (NAS) post-baseline ([5]; DIO-NASH mice, CHS-131 monotherapy, significant, on average): more than 1 unit; Improvement of ballooning [5, 10]: ~10%; Improvement of steatosis [5, 10]: approximately 30%; Improvement of lobular inflammation ([5]; DIO-NASH mice, compared to vehicle only, non-significant (p=0.07)): 50%; NAFLD score: mice with improvement ([5]; DIO-NASH mice, post- vs pre-study biopsy, significant): 7/13; Delta change in NAFLD activity score from pre- to post biopsy ([5]; CHS-131 Low dose): −0.23; Plasma triglycerides (TG) at termination ([6]; CHS-131 Low dose): 0.715 mmol/L
2 | OC[C@H]1O[C@@H](c2ccc(Cl)c(Cc3ccc(O[C@H]4CCOC4)cc3)c2)[C@H](O)[C@@H](O)[C@@H]1O [Empagliflozin, reference compound] | 1.31e+03 | 743 | 673 | -69.9 | 7.71 | 6.69 | -1.03 | positive trend for improvement | −0.31 | 0.738 | 99.9 | 2.9 | 
3 | CSc1ccc(C(=O)/C=C/c2cc(C)c(OC(C)(C)C(=O)O)c(C)c2)cc1 [Elafibranor, reference compound] | 1.35e+03 | 644 | 297 | -347 | 7.68 | 6.41 | -1.27 |  | −2.00 | 0.525 | 104 | 2.43 | 
